Data from patent publication US20200165257A1, “INHIBITORS OF PHOSPHOINOSITIDE 3-KINASE AND HISTONE DEACETYLASE FOR TREATMENT OF CANCER” (THE UNITED STATES OF AMERICA, AS REPRESENTED BY THE …, priority 2017, published 2020).

How the values were obtained:
HDAC6 = target: T1, HDAC6 (Homo sapiens, UniProt Q9UBN7); assay: HDAC Fluorescent Activity Assay; type: biochemical; conditions: symbols ++ / +; read-out: HDAC6 Inhibition Activity (IC50 class)
T1 sequence (Q9UBN7 1-1215): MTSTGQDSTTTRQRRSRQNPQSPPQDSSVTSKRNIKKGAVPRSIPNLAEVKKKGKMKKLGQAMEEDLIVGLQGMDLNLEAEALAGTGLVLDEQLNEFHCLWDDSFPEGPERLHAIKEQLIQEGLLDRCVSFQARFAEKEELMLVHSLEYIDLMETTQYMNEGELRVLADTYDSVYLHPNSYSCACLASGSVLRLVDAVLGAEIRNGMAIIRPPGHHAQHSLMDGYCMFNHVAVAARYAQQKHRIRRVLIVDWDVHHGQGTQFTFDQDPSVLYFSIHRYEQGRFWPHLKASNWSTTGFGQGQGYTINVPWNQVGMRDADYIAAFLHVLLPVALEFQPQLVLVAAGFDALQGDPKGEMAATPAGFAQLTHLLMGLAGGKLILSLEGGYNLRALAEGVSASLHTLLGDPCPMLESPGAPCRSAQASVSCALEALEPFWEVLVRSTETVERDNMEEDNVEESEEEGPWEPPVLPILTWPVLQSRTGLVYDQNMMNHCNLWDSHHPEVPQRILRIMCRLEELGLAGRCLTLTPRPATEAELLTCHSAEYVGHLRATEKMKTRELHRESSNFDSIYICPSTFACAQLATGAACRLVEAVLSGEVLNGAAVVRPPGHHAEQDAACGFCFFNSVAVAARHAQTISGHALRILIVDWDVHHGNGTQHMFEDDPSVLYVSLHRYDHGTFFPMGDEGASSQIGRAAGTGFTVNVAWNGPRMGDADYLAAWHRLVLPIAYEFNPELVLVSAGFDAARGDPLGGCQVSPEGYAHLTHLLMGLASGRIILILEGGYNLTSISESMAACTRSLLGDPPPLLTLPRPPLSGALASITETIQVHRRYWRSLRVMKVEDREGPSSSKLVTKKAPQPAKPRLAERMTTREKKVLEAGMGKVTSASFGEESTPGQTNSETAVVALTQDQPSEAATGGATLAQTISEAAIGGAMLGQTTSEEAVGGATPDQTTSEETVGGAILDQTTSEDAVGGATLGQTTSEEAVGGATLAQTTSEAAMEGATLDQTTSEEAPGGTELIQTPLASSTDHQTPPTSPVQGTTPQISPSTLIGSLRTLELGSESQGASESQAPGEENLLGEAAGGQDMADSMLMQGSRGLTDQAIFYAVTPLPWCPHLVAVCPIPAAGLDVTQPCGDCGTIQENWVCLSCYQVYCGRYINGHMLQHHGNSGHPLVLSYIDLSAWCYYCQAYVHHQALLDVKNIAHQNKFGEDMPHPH

[1] = system: Leukemia Cell Line RPMI-8226; type: cell-based; conditions: Homo sapiens; RPMI-8226; single dose, 10 uM compound concentration; read-out: inhibition of proliferation
[2] = system: Melanoma Cell Line UACC-62; assay: cells; type: cell-based; conditions: Homo sapiens; UACC-62; single dose, 10 uM compound concentration; read-out: inhibition of proliferation
[3] = system: Ovarian Cell Line OVCAR-8; assay: cells; type: cell-based; conditions: Homo sapiens; OVCAR-8; single dose, 10 uM compound concentration; read-out: inhibition of proliferation
[4] = system: Breast Cancer Cell Line HS 578T; type: cell-based; conditions: Homo sapiens; HS 578T; single dose, 10 uM compound concentration; read-out: inhibition of proliferation

IC50 (HDAC6): < 100 nM
Compound: CC[C@H](Nc1nc(N)nc(C)c1C#N)c1nc2cccc(CN(C)c3ncc(C(=O)NO)cn3)c2c(=O)n1-c1ccccc1 [LII, (S)-2-(((2-(1-((2-amino-5-cyano-6-methylpyrimidin-4-yl)amino)propyl)-4-oxo-3-phenyl-3,4-dihydroquinazolin-5-yl)methyl)(methyl)amino)-N-hydroxypyrimidine-5-carboxamide]
inhibition at 10 µM [1]: > 50%
inhibition at 10 µM [2]: > 50%
inhibition at 10 µM [3]: > 50%
inhibition at 10 µM [4]: > 50%
